Data on five molecules can be found in patent US4548923A, “Muramyl peptides and processes for their manufacture” (Ciba Geigy Corporation, priority 1982, dated 1985).

The nature of data set [1]: test for pyrogenity in rabbits (European Pharmacopoeia). The class given is in vivo. To be noted: subcutaneous administration, 30 mg/kg. An excerpt: The test for pyrogenity can be carried out in rabbits in accordance with the instructions given in European Pharmacopoeia, Vol. 2, pages 56-59 (1971).
The next data set has as its system Alveolar rat macrophages. As to the kind of experiment: macrophage activation: cytotoxicity of alveolar rat macrophages against 125I-marked tumour cells. The format is cell-based. On the procedure:
Alveolar rat macrophages are obtained by lung washing, plated out and incubated in vitro for 24 hours either with liposomes that are charged with the active ingredient, or with the active ingredient in physiological salt solution (phosphate buffered saline, PBS), ^125 I-marked tumour cells are added and incubation is continued for a further 72 hours. Subsequently the dead tumour cells are washed away and the number of tumour cells still living is determined on the basis of their radioactivity. […] The specific cytotoxicity [%] is calculated as follows: [formula]
Further details of the above-mentioned test method are described in I. J. Fidler et. al., J. Biol. Response Modifiers 1, 43-55 (1982).

The mark [2] stands for this setting: Active ingredient in 100 μg of lipsomes per 0.2 ml, 0.2 μg/culture.
Where [3] appears, read: Active ingredient in 100 μg of lipsomes per 0.2 ml, 2 μg/culture.
The mark [4] stands for this setting: Active ingredient in 100 μg of lipsomes per 0.2 ml, 20 μg/culture.
[5] abbreviates: Active ingredient in 0.2 ml of PBS, 0.2 μg/culture.
Where [6] appears, read: Active ingredient in 0.2 ml of PBS, 2 μg/culture.
Where [7] appears, read: Active ingredient in 100 μg of lipsomes per 0.2 ml, 0.02 μg/culture.
Setting [8] is: Active ingredient in 0.2 ml of PBS, 0.02 μg/culture.

In the case of `CCCCCCCCCCCCCCCC(=O)OCC(COP(=O)([O-])OCCNC(=O)C(C)NC(=O)CCC(NC(=O)C(C)NC(=O)C(C)OC1C(O)C(CO)OC(O)C1NC(C)=O)C(N)=O)OC(=O)CCCCCCCCCCCCCCC.[Na+]` [sodium salt of N-acetylmuramyl-L-alanyl-D-isoglutaminyl-L-alanine-2-(1,2-dipalmitoyl-sn-glycero-3-hydroxyphosphoryloxy)-ethylamide, reference compound], the pyrogenic effect result in data set [1] was “highly pyrogenic”.

On to “the sodium salt of N--acetylmuramyl-L-α-aminobutyryl-D-glutamyl-(Cα)-n-butyl ester-(Cγ)-L-alanine-2-(1,2-dipalmitoyl-sn-glycero-3-hydroxyphosphoryloxy)-ethyl-amide [compound II]”, for which the “Specific cytotoxity [%]” value in the data set with Alveolar rat macrophages (setting [2]) is listed as 10%; in the data set with Alveolar rat macrophages (setting [3]), 23%; in the data set on Alveolar rat macrophages (setting [4]), 11%; with Alveolar rat macrophages (setting [5]), 21%; in the data set on Alveolar rat macrophages (setting [6]), 48%; with Alveolar rat macrophages (Active ingredient in 0.2 ml of PBS, 20 μg/culture), 74%.

`CCCCCCCCCCCCCCCC(=O)OC[C@H](COP(=O)([O-])OCCNC(=O)[C@H](C)NC(=O)CC[C@@H](NC(=O)[C@H](C)NC(=O)[C@@H](C)O[C@H]1[C@H](O)[C@@H](CO)OC(O)[C@@H]1NC(C)=O)C(=O)OCCCC)OC(=O)CCCCCCCCCCCCCCC.[Na+]` (stereo partly drawn) [Active ingredient I, the sodium salt of N-acetylmuramyl-L-alanyl-D-glutamyl-(Cα)-n-butyl ester-(Cγ)-L-alanine-2-(1,2-dipalmitoyl-sn-glycero-3-hydroxyphosphoryloxy)-ethylamide]: the pyrogenic effect entry in data set [1] was “no pyrogenic effect”. For the same molecule, the “Specific cytotoxity [%]” value with Alveolar rat macrophages (setting [2]) is given as 56%; with Alveolar rat macrophages (setting [3]) it was 51%; with Alveolar rat macrophages (setting [4]), 44%; in the data set with Alveolar rat macrophages (setting [5]), 39%; with Alveolar rat macrophages (setting [6]) it was 59%.

“the sodium salt of N-propionylnormuramyl-L-alanyl-D-glutamyl-(Cα)-n-butyl ester-(Cγ)-L-alanine-2-(1,2-dipalmitoyl-sn-glycero-3-hydroxyphosphoryloxy)-ethylamide [Active ingredient II]”: the “Specific cytotoxity [%]” value with Alveolar rat macrophages (setting [7]) was found to be 64%; with Alveolar rat macrophages (setting [2]), 76%; with Alveolar rat macrophages (setting [3]), 79%; with Alveolar rat macrophages (setting [8]), 3%; with Alveolar rat macrophages (setting [5]), 81%; with Alveolar rat macrophages (setting [6]), 47%.

As to “the sodium salt of N--acetylmuramyl-L-valyl-D-glutamyl-(C α)-n-butyl ester-(Cγ)-L-alanine-2-(1,2-dipalmitoyl-sn-glycero-3-hydroxyphosphoryloxy)-ethylamide [compound IV]”, the “Specific cytotoxity [%]” value is listed as 64% in the data set with Alveolar rat macrophages (setting [7]); 68% with Alveolar rat macrophages (setting [2]); 52% with Alveolar rat macrophages (setting [3]); 23% in the data set with Alveolar rat macrophages (setting [8]); 18% in the data set on Alveolar rat macrophages (setting [5]); 20% in the data set with Alveolar rat macrophages (setting [6]).
